The record followed here is ChEMBL document CHEMBL1127887, “Synthesis and in vitro cardiovascular activity of 4-aryl-2,3,3a,4-tetrahydro-1h-pyrrolo[2,1-c][1,4]benzothiazin-1-ones and 7-acetoxy-6-phenyl-7a,8,9,10-tetrahydropyrrolo [2,1,-d][1,5]benzothiazepin-10-one” (Bioorg Med Chem Lett, 1994).

The species entered for test [1] is Cavia porcellus. As to the kind of experiment: Calcium antagonist activity on K+ depolarized guinea pig aortic strips at 10E-4 mol/L concentration was determined. The class given is functional. The note with it: Aorta.
For test [2], the species on record is Cavia porcellus. Description: Negative inotropic potency on isolated guinea pig left atrium. The class given is functional, Cardiac atrium.
For test [3], the target named is T1, Voltage-gated L-type calcium channel (Rattus norvegicus, UniProt P22002+Q02485+P27732). As to the kind of experiment: Inhibitory constant against calcium channel receptors (CCRs). The class given is protein assay.
In test [4] the target is T1, Voltage-gated L-type calcium channel. Description: Displacement of [3H]nitrendipine from calcium channel receptors (CCRs). The class given is protein assay.
The species named for test [5] is Cavia porcellus. As to the kind of experiment: Calcium antagonist potency on K+ depolarized guinea pig aortic strips. The class given is functional. The note with it: Aorta.
For test [6], the species on record is Cavia porcellus. As to the kind of experiment: Negative inotropic activity on isolated guinea pig left atrium at 10E-4 mol/L concentration was determined. The class given is functional, Cardiac atrium.
The species entered for test [7] is Cavia porcellus. As to the kind of experiment: Negative chronotropic activity on isolated guinea pig right atrium at 5x10E-5 mol/L concentration was determined. The class given is functional, Cardiac atrium.
In test [8] the target is T1, Voltage-gated L-type calcium channel. As to the kind of experiment: Displacement of [3H]nitrendipine from calcium channel receptors (CCRs) from rat cortex homogenate. Background: Loss of bound radioactivity is the signal in a displacement assay; it reports binding, not function.
Test [9] has the same target. As to the kind of experiment: Inhibitory constant against calcium channel receptors (CCRs) from rat cortex homogenate.

Take `COc1ccc(C2Sc3ccccc3N3C(=O)CCC23)cc1` (stereo unspecified): the inhibition at 100 µM in the test filed under Cavia porcellus [1] came out at 32%. Moreover, the ED50 in the test filed under Cavia porcellus [2] is on record as 1.2 uM l-1. Besides, the Ki in test [3] was found to be 0.675 µM. The IC50 in test [4] was 1.8 µM; in the test filed under Cavia porcellus [5] it was 16.6 µM. For the same molecule, the values for the Decrease in the test listed under Cavia porcellus [6] and in the test listed under Cavia porcellus [7] were 60% and 39%, respectively.
For `O=C1CCC2C(c3ccccc3)Sc3ccccc3N12` (stereo unspecified), in the test filed under Cavia porcellus [1], the inhibition at 100 µM was found to be 37%. Further, the figures for the IC50 (in [8]; in the test filed under Cavia porcellus [5]) were 0.00078 µM and 20 µM, respectively. For the same molecule, the ED50 in the test filed under Cavia porcellus [2] came to 0.23 uM l-1. Also, the figures for the Decrease in the test filed under Cavia porcellus [6] and in the test filed under Cavia porcellus [7] were 66% and 20%, respectively. For the same molecule, the Ki in test [9] turned out to be 0.00029 µM.
With `CC(=O)OC1=C(c2ccccc2)Sc2ccccc2N2C(=O)CCC12` (stereo unspecified), the inhibition at 100 µM in the test filed under Cavia porcellus [1] was determined as 26%. This molecule yielded an ED50 in the test filed under Cavia porcellus [2] of 1.1 uM l-1. For the same molecule, the Ki in [3] came to 0.581 µM. Besides, the IC50 stood at 1.55 µM in test [4] and 32.4 µM in the test filed under Cavia porcellus [5]. Also, the Decrease in the test filed under Cavia porcellus [6] was determined as 96%; in the test filed under Cavia porcellus [7] it was 27%.
With `COc1ccc([C@@H]2Sc3ccccc3N(CCN(C)C)C(=O)[C@@H]2OC(C)=O)cc1` [DILTIAZEM], the inhibition at 100 µM in the test filed under Cavia porcellus [1] came out at 88%. Moreover, in the test listed under Cavia porcellus [2], the ED50 came to 0.79 uM l-1. Also, the half-maximal inhibitory concentration (IC50) in the test listed under Cavia porcellus [5] was determined as 2.6 µM. Further, the values for the Decrease in the test filed under Cavia porcellus [6] and in the test listed under Cavia porcellus [7] were 78% and 94%, respectively.

What is called inhibition is the percentage by which the read-out fell short of the control. Broadly, the Ki is a dissociation constant, usually derived from enzyme kinetics or from competition with a known ligand. Broadly, the IC50 is the concentration that gives 50% inhibition.
